Assay results reported in PMC11091888, “Evaluation of Fusobacterium nucleatum Enoyl-ACP Reductase (FabK) as a Narrow-Spectrum Drug Target” (ACS Infectious Diseases, 2024).
Values joined by “and” are separate entries in the source; they are usually repeats but may differ in a detail not shown here. Equal entries are not always repeated. Where two headings read alike, the source gives them in different places.

Legend:
E. faecalis FA2–2 = assay: MIC against wild-type E. faecalis FA2-2 (FabI and FabK); format: cell-based, Enterococcus faecalis; details: E. faecalis FA2-2, possesses both FabI and FabK
Procedure: (§1) Compounds were twofold serially diluted (100–0.2 μg/mL) across a 96-well plate in 100 μL of media used for the specific organism (Table S4). For anaerobes, plates were incubated anaerobically at 37 °C for 1 h and then inoculated with approximately 10^5 to 10^6 CFU/well. Plates were incubated at 37 °C for up to 48 h, and MICs were read by visual inspection.

[1] = test system: F. nucleatum 23726 overexpression strains; assay: MIC against F. nucleatum 23726 transformed with empty vector, fabK or fabX under ATc-inducible promoter; format: cell-based, Fusobacterium nucleatum; details: for MIC: Fusobacterium nucleatum
Procedure: The transformation of F. nucleatum 23726 was performed via electroporation as previously described,[41] except that Columbia broth was used. (i) Antisense vector: F. nucleatum gene silencing vector, pHFK2, was developed by inserting the ATc inducible paired-termini antisense sequences from the clostridial vector pMSPT into pCWU6, a F. nucleatum vector.[56] pCWU6 was amplified by PCR (CloneAmp polymerase) and recombined with the BamHI and KpnI fragments of pMSPT containing the Tet promoter and paired-termini sequences.[26] Antisense nucleotides targeting either 50 bp upstream and downstream of the fabK start codon (FabKAS1) or 25 bp upstream and 75 bp downstream (FabKAS2) were cloned into SphI and XhoI restriction sites of pHFK2. (ii) Complementation vectors: these were generated by PCR amplifying the fabK promoter and gene and introducing KpnI and HindIII restriction sites at 5′ and 3′ ends, respectively. Purified PCR amplicons were inserted into the KpnI and HindIII sites of pCWU6. (iii) Overexpression vectors: the corresponding gene, fabK or fabX, was amplified via PCR, introducing HindIII or SacI restriction sites to the 5′ end, respectively. BamHI restriction sites were introduced to the 3′ end of both. Purified PCR amplicons were inserted into the respective restriction sites of pHFK2. (iv) Allelic exchange vector: vector, pCWU8-FabK, was generated using a previously described protocol,[41],[56] whereby 1-kb regions upstream and downstream of fabK were cloned into the suicide vector pCWU8 using a Gibson Assembly Cloning Kit (New England Biolabs). The recombinant vector was transformed into strain F. nucleatum 23726ΔgalK, and successful integrants were collected that were resistant to thiamphenicol (5 μg/mL). Since the suicide vector expresses GalK, which is toxic in the presence of 2-deoxy-D-galactose (2-DG), the compound 2-DG (0.25% w/v) was added to counter-select for mutants that underwent a second homologous recombination. Ten resulting colonies were then tested for deletion of fabK via PCR, using primers in Table S7. The experiment was independently performed twice for a total of 20 colonies screened for fabK deletion. All experiments were done anaerobically at 37 °C in tryptic soy broth supplemented with 1% w/v peptone and 0.25% w/v autoclaved L-cysteine hydrochloride (TSPC) or TSPC agar with thiamphenicol or 2-DG.
as §1

Question: What does the source list for `CS(=O)(=O)c1ccc2nc(NC(=O)NCc3nc(-c4ccc(Br)cc4)c[nH]3)sc2c1` [Compound 681, 1-((4-(4-bromophenyl)-1H-imidazole-2-yl)methyl)-3-(6-(methylsulfonyl)benzo[d]thiazol-2-yl)urea]?
Answer: MIC Ef wild-type (E. faecalis FA2–2): 100 µg/mL and >100 µg/mL; MIC (E. faecalis FA2–2; Enterococcus faecalis, read-out: MIC Ef wild-type): > 100 µg/mL; MIC, FabK overexpression, induced ([1]; F. nucleatum 23726 pTET-fabK, 62.5 ng/mL ATc): >100 µg/mL; MIC ([1]; read-out: MIC, FabK overexpression, induced): > 100 µg/mL; MIC ([1]; read-out: MIC, FabK overexpression, uninduced): 0.8 µg/mL; MIC ([1]; read-out: MIC, FabX overexpression, induced): 3.1 µg/mL; MIC ([1]; read-out: MIC, FabX overexpression, uninduced): 0.8 µg/mL; MIC ([1]; read-out: MIC, empty vector, induced): 0.4 µg/mL; MIC ([1]; read-out: MIC, empty vector, uninduced): 0.8 µg/mL
